Data: patent US20100048923A1, “ATR Inhibitor” (priority 2005, published 2010)

Legend:
A549 cells = assay: G2/M checkpoint: cells containing phosphorylated histone H3 (flow cytometry) in UV-irradiated A549 cells; assay type: cell-based; details: 30 μM compound, 20 J/m^2 UV, ratio of G2/M (phospho-histone H3) cells to total, Control 1.88, UV irradiation alone 0.52
Method: A549 cells were seeded as 3×10^4 cells/cm^2 in the growth medium on 10 cm dish and incubated for overnight. Then, Schizandrin B was added to the medium as final concentration of 30 μM. At 1 hour after the addition of Schizandrin B, the medium was removed, and were irradiated with 20 J/m^2 and 50 J/m^2 of UV. After the UV irradiation, and then the cells were incubated in the Schizandrin B-containing medium having the same concentration as mentioned above for 1 hour. Then, the percentage of the cells containing phosphorylated histone H3 were measured in accordance with a Measurement of the phosphorylated histone H3 as mentioned below. The FIG. 2(A) is a result of flowcytometry as obtained in the treatment with Schizandrin B. In the FIG. 2(A), the encircled portion indicates the cell group in G2/M phase, numbers as mentioned above the portion indicates the ratio of the cells in G2/M phase to the total number of cells. In addition, the FIG. 2(B) indicates a graph showing the ratio.
Ratios of the cells in G2/M phase to the total number of cells were obtained in accordance with the Embodiment 2-1, except that, in the Embodiment 2-1, 20 J/m^2 of UV were irradiated instead of 20 J/m^2 and 50 J/m^2 of UV and the compounds of the formulas (1) to (10) and Angeloyl Gomisin A of a formula (C) (final concentration of 30 μM) as mentioned below were used instead of the final concentration of 30 μM of Schizandrin B. The result is shown in Table 1.
The cells were harvested and fixed with 70% ice-cooled ethanol after the washing with PBS. PBS containing 0.25% Triton X-100 was added, and the cells were stood on ice for 30 minutes. Cells were centrifuged (500×g, 5 minutes) and replaced to PBS containing 1% bovine serum albumin (BSA) and 1 μg of […] (specifically binding to the phosphorylated histone H3 at 13 Serine), and incubated for 4 hours at room temperature.
After the subsequent washes with PBS containing 1% BSA, goat anti-rabbit IgG antibody conjugated with FITC which diluted with 100 times with PBS containing 1% BSA was added, and incubated for 30 minutes at dark place. These cells were counterstained with PI in accordance with the FACS analysis as mentioned below. The percentage of cells containing phosphorylated histone H3 was measured and evaluated with flowcytometry (Beckman-Coulter).

[1] = test system: P-p53 (Ser15) in A549 cells; assay: Phosphorylation of p53 at serine 15 in UV-irradiated A549 cells (immunoblot); assay type: cell-based; details: Homo sapiens, light or radiation study, 3 h, 30 μM compound, 25 J/m^2 UV, UV irradiation alone = 100%, Control 15.4, read-out: Relative rate of P-p53 (Ser15) band intensity
Method: A549 cells were seeded as 3×10^4 cells/cm^2 in the growth medium on 10 cm dish, incubated for overnight, and Schizandrin B was added in the medium as final concentration of 30 μM in the medium. After 1 hour incubation, the medium was removed, irradiated with 20 J/m^2 of UV, and incubated for 3 hours (hereinafter, referred to as “UV-cell group” with regard to the obtained cells).
It should be noted that both groups of the UV-cell group and IR-cell group were cultured in the presence of 50 μM of N-acetyl-L-Leucyl-L-Leucyl-L-norleucinal (Sigma, Mo., USA) (hereinafter, referred to as “LLnL”) from 15 minutes prior to the irradiation to collection of the cells as mentioned below. Protein in the cells were extracted in accordance with a Preparation of proteins as mentioned below, immunoblot analysis was performed with regard to the phosphorylated p53 at 15 serine (P-p53 (Ser 15)), p53 protein (p53), phosphorylated ATM protein at 1981 serine (P-ATM (Ser1981)) and glyceraldehyde-3-phosphate dehydrogenase (GAPDH) in accordance with an Immunoblot analysis as mentioned below.
The dose-depended effect of Schizandrin B on the phosphorylation of p53 in A549 cells irradiated with UV A549 cells were seeded as 3×10^4 cells/cm^2 in the growth medium on 10 cm dish, incubated for overnight, and Schizandrin B was added in the medium as final concentration of 10, 30 and 100 μM in the medium. After 1 hour incubation, the medium was removed, and the cells were irradiated with 20 J/m^2 of UV. The cells were treated with LLnL as mentioned in Embodiment 4. Then, expression of p53 and phosphorylated p53 at 15 serine (P-p53 (Ser15)) in the cells treated with the same concentration of Schizandrin B as mentioned above was examined.
Expression of phosphorylated p53 at 15 serine (P-p53 (Ser15)) was examined in accordance with Embodiment 5-1, except that, in Embodiment 5-1, compounds of the Formulas (1) to (10) and the compound of the Formula (C) (final concentration of 30 μM) were added in the medium instead of the addition of final concentration of 10, 30 and 100 μM of Schizandrin B in the medium, and 25 J/m^2 of UV was irradiated instead of the 20 J/m^2 of UV irradiation. Electrophoresis image as obtained is shown in FIG. 5-2, and relative ratio of the band intensity corresponding to P-p53 (Ser15) to that of the band as obtained in the irradiation with UV as 100% is shown in Table 2.
50 μg of cellular proteins (as prepared in accordance with the Preparation of proteins as mentioned below) were applied to SDS polyacrylamide gel electrophoresis (12.5%), the electrophored proteins were transferred into the nitrocellulose membrane in accordance with the standard method, and blocking reaction was performed for 1 hour at room temperature using Tris-buffered saline (TBS-T) containing 5% skim milk and 0.1% Triton X-100. So obtained membrane were incubated with the desired adequate antibodies as mentioned below for 16 hours at 4° C., and then incubated with secondary anti-serum (corresponding to the animal originated from the desired antibodies) conjugated with horseradish peroxidase for 1 hour at room temperature. Then, the target proteins were visualized with ECL reaction kit (Amersham) and chemiluminescence film (Amersham) to obtain a protein image.
The cells were harvested with ice-cooled PBS from the culture dish, and were washed twice with cooled PBS. Then, it was centrifuged to obtain cell pellet. The pellet was solubilized with UTB buffer as mentioned below to prepare cellular protein. The content of the proteins was measured with Protein Assay kit (Bio-Rad).

ATR = target: T1, ATR (Homo sapiens, UniProt Q13535); assay: ATR protein kinase activity (Flag-ATR immunoprecipitate, PHAS-I substrate, 32P-ATP); assay type: biochemical; details: 300 μM ATP, 20 minutes at 30° C., estimated from lines, read-out: IC50 for the phosphorylating activity of ATR
T1 construct: made in house; host or cells: 293T cells (ATCC: CRL-11268), transient transfection of pcDNA3.1 plasmid, anti-Flag M2 immunoprecipitate
T1 sequence (Q13535 whole entry A92R): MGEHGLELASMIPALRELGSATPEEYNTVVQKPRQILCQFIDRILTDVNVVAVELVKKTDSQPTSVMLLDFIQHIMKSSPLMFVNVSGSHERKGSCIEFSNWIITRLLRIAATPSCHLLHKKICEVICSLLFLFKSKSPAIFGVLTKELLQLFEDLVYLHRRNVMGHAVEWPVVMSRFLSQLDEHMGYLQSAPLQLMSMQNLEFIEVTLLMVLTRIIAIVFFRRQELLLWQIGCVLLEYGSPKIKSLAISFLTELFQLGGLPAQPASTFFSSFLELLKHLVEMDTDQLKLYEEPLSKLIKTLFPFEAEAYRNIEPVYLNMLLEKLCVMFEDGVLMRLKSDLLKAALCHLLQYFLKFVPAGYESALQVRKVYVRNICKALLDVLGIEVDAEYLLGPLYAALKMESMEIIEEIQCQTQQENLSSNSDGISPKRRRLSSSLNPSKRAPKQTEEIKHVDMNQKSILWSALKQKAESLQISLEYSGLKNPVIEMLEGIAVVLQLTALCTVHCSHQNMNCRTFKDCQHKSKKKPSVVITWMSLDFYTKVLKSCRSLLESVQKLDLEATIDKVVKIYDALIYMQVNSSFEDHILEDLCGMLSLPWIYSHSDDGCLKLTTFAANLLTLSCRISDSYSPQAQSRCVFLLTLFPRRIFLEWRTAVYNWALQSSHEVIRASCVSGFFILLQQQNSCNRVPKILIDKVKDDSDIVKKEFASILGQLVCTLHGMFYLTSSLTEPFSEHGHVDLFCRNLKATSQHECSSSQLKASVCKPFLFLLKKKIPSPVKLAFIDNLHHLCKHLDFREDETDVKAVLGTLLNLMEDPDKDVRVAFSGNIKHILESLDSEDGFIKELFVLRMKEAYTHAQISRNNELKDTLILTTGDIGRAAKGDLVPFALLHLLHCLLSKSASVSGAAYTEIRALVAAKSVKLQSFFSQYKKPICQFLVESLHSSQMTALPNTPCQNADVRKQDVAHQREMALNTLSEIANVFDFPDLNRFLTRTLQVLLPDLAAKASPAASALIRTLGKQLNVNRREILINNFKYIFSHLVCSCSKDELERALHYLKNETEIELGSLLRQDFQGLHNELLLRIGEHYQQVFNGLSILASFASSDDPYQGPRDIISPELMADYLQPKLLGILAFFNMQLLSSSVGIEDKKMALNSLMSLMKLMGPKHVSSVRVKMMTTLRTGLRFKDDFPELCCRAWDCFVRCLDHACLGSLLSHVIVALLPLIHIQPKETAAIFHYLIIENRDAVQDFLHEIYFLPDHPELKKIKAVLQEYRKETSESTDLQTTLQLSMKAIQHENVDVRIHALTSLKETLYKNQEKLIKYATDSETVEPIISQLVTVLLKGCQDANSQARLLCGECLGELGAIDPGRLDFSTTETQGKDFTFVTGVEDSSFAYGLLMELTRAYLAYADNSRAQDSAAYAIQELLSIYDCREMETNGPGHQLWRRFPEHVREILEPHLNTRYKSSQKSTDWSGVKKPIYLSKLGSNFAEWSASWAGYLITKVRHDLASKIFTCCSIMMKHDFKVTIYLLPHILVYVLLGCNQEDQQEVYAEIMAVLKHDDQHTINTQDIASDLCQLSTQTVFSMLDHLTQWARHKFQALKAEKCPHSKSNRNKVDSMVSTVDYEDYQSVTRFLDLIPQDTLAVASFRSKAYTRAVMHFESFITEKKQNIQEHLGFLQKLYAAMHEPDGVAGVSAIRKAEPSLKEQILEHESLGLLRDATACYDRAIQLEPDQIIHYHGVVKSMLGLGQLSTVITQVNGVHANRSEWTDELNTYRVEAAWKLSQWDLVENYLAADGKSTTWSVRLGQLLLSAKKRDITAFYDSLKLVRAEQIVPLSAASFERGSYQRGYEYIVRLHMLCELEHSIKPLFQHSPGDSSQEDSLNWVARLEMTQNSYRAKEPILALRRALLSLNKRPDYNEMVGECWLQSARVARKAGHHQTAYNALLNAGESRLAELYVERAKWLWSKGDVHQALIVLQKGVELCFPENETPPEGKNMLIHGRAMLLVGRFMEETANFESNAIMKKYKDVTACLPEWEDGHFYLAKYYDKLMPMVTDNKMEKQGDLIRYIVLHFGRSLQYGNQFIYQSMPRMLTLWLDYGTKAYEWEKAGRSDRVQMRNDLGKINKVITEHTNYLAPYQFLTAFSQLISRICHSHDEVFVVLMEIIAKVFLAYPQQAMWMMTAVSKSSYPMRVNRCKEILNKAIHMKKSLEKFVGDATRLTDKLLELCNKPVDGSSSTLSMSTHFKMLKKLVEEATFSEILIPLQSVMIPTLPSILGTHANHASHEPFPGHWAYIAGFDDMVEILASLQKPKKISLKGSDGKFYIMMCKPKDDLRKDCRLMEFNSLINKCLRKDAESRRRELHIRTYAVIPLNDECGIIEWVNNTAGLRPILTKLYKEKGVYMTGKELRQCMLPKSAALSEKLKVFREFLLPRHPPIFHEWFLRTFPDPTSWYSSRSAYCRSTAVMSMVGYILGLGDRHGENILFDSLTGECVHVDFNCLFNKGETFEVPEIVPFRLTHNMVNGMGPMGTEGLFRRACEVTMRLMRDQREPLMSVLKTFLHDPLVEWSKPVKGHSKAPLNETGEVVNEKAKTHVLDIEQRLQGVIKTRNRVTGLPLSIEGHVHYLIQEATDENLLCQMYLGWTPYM
Method: 1 μg of recombinant PHAS-I protein (Alexis Biochemicals) as a substrate, and Schizandrin B were added to mixtures of ATR and ATM for the kinase reaction as prepared in accordance with a Preparation of mixtures of ATR and ATM for kinase reaction as follows. 300 μM of ATP containing a suitable concentration of ^32P-ATP was added to react it for 20 minutes at 30° C. 4 volumes of SDS sample loading buffer (200 mM Tris-HCl (pH 6.8), 400 mM DTT and 8% SDS) were added to the reaction mixture to stop the reaction, and the obtained mixture is applied to 12% SDS-PAGE. After the gel as obtained was dried, […] corresponding to the band of ^32P—PHAS-I in the mixture was evaluated using autoradiography method. In the Figure, (A) and (B) indicate the relative activities of ATR and ATM, respectively, the horizontal axis indicates the concentration of Schizandrin B, and the vertical axis indicates the relative value of the count as obtained in Schizandrin B-treated group to that of no-addition of Schizandrin B group.
IC50s of the compounds for the phosphorylating activity of ATR were estimated based on the lines as obtained in accordance with Embodiment 7-1, except that, in Embodiment 7-1, the compounds of the Formulas (1) to (5) and the compound of the Formula (C) were used instead of Schizandrin B. The values are shown in Table 3.
ATR conjugated with Flag as constructed with conventional method as disclosed in, e.g. Non-Patent-Related Document 9 was used for a mixture of ATR for kinase reaction. In detail, Bam H1H-Swa I fragment of ATR gene (Sequence Number 4) (1 kb) was substituted with a gene having the ATR gene and Flag ([…]) at N terminal and the gene was amplified with PCR. So obtained gene product was introduced into pcDNA3.1, and target product was obtained from the plasmid. In addition, ATM conjugated with Flag as manufactured in accordance with the well-known method as disclosed in e.g. non-patent related documents 10 and 11 and using Quikchange site-Directed Mutagenesis Kit (Stratagene) was used for a mixture of ATM for kinase reaction.
These ATR and ATM plasmids tagged with Flag (Sequence Numbers 4 and 5) were transfected in 293T cells (ATCC: CRL-11268) by Calcium phosphate method as followed. After 2 days, 5 mg of cellular proteins were prepared using IP buffer in accordance with the Preparation of proteins as mentioned below instead of the UTB buffer, and ATR and ATM were immuno-precipitated with 20 μg of anti-Flag M2 monoclonal antibody (Sigma) for 4 hours at […], independently. The precipitates were incubated with beads conjugated with protein G cepharose (Amersham). […]

ATM = target: T2, ATM (Homo sapiens, UniProt Q13315); details: caffeine, literature; cited from earlier work
T2 construct: made in house; host or cells: 293T cells (ATCC: CRL-11268), transient transfection, anti-Flag M2 immunoprecipitate

In the case of `C/C=C(/C)C(=O)O[C@H]1c2cc(OC)c(OC)c(OC)c2-c2c(cc3c(c2OC)OCO3)C[C@H](C)[C@@]1(C)O` (atropisomer, axis not shown) [GB, Gomisin B], the “Rate of Divided cells” value (A549 cells) is reported as 0.85 ± 0.12% and the activity at 30 µM [1] is reported as 60.9%.

For `C/C=C(\C)C(=O)O[C@@]1(C)Cc2cc(OC)c(OC)c(OC)c2-c2c(cc3c(c2OC)OCO3)C[C@@H]1C` (atropisomer, axis not shown) [AGA, Angeloyl Gomisin A, reference compound], the IC50 (ATR) was 111 µM, the “Rate of Divided cells” value (A549 cells) was 1.04 ± 0.06% and the activity at 30 µM [1] was 92.2%.

With `COc1cc2c(c(OC)c1OC)-c1c(cc3c(c1OC)OCO3)C[C@H](C)[C@@](C)(O)C2` (atropisomer, axis not shown) [GA, Gomisin A] the “Rate of Divided cells” value (A549 cells) was 0.90 ± 0.07% and the activity at 30 µM [1] was 58.3%.

With `COc1c2c(cc3c1-c1c(cc4c(c1OC)OCO4)C[C@H](C)[C@H](C)C3)OCO2` (atropisomer, axis not shown) [SchC, Schizandrin C] the “Rate of Divided cells” value (A549 cells) was 0.68 ± 0.11% and the activity at 30 µM [1] was 42.6%.

In the case of `Cn1c(=O)c2c(ncn2C)n(C)c1=O` [Caffeine, 3,7-dihydro-1,3,7-trimethyl-1H-purine-2,6-dione], the “IC50 for ATM relative to that of ATR” value (ATM) is listed as “⅕”.

In the case of `COc1cc2c(c(OC)c1OC)-c1c(cc3c(c1OC)OCO3)C[C@H](C)[C@](C)(O)[C@H]2OC(=O)c1ccccc1` (atropisomer, axis not shown) [GC, Gomisin C], the “Rate of Divided cells” value (A549 cells) is reported as 1.16 ± 0.16% and the activity at 30 µM [1] is reported as 49.8%.

For `COc1cc2c(c(OC)c1OC)-c1c(cc3c(c1OC)OCO3)[C@H](OC(=O)c1ccccc1)[C@](C)(O)[C@@H](C)C2` (atropisomer, axis not shown) [GG, Gomisin G], the IC50 (ATR) was 32 µM, the “Rate of Divided cells” value (A549 cells) was 1.13 ± 0.05% and the activity at 30 µM [1] was 51.3%.

In the case of `COc1cc2c(c(OC)c1OC)-c1c(cc3c(c1OC)OCO3)C[C@@H](C)[C@@H](C)C2` (atropisomer, axis not shown) [GN, Gomisin N], the “Rate of Divided cells” value (A549 cells) is reported as 0.88 ± 0.12% and the activity at 30 µM [1] is reported as 38.4%.

For `COc1cc2c(c(OC)c1OC)-c1c(cc(OC)c(OC)c1OC)C[C@](C)(O)[C@@H](C)C2` (atropisomer, axis not shown) [S, Schizandrin], the “Rate of Divided cells” value (A549 cells) was 0.68 ± 0.04% and the activity at 30 µM [1] was 42.7%.

For `COc1cc2c(c(O)c1OC)-c1c(cc(OC)c(OC)c1OC)C[C@](C)(O)[C@@H](C)C2` (atropisomer, axis not shown) [GH, Gomisin H], the IC50 (ATR) was 45.7 µM, the “Rate of Divided cells” value (A549 cells) was 1.42 ± 0.03% and the activity at 30 µM [1] was 50.3%.

For `COc1cc2c(c(OC)c1OC)-c1c(cc3c(c1OC)OCO3)C[C@H](C)[C@@](C)(O)[C@H]2OC(=O)c1ccccc1` (atropisomer, axis not shown) [GC, Gomisin C], the IC50 (ATR) was 10.6 µM.
